Read-outs that look alike come from different tables or passages of the source.
What was measured:
[1] = tested on: GMC101 strain of C. elegans; test: Temperature-dependent paralysis assay in C. elegans Alzheimer's disease model; format: in vivo; settings: for number of paralyzed worms: 1 μg/ml, counted after 18-hour incubation at 25° C.
Method: Paralysis assay: Worms were grown at a non-restrictive temperature of 16° C. until they reached the L4-young adult stage. The temperature was then shifted to 25° C. The number of paralyzed and non-paralyzed animals were counted after an 18-hour incubation at the restrictive temperature of 25° C.
Statistical analysis: The data were analyzed using a 2-tailed chi-square test in contingency table. Statistical analysis was performed using the GraphPad Prism software (version 7.00).

[2] = tested on: R6/1 mice; test: Open-field motor activity test in mouse model of Huntington's disease; format: in vivo; settings: oral STX64 0.005 mg/ml in drinking water from 1 month of age for 1 month, tested at 2 months
Method: (§1) Mice strains and conditions: The R6/1 mice (Yi Li et al., 2005. NeuroRX. 2(3): 447-464; Mangiarini et al., 1996. Cell. 87(3):493-506) used in this study were purchased from an authorized provider and they were habituated to standard animals housing conditions for 2-3 weeks (a 12 h light/dark cycle, temperature and humidity). Motor activity studies were performed with 2-month-old R6/1 mice. All experiments were performed in accordance with European Union guidelines (2010/63/EU) and with Spanish regulations for the use of laboratory animals in chronic experiments (RD 53/2013 on the care of experimental animals: BOE Aug. 2, 2013), and the approval of the University Pablo de Olavide animal care committees was obtained prior to performing this study.
Mice Oral STX administration: STX64 was dissolved in drinking water at 0.005 mg/ml. 1-month-old mice were exposed to STX solution for 1 month and the water intake was registered every day during the treatment. The estimated daily dose of STX64 was between 1-2 mg/Kg of body weight.
Motor activity test: Locomotor activity was tested in a non-stressful open-field (56×40×40 cm) for 15 minutes. The distance traveled by the mice was estimated with Smart video-tracking software (Panlab).

[3] = tested on: C. elegans Parkinson's disease model strain NL5901; test: Mobility (pitches per minute) in C. elegans Parkinson's disease model; format: in vivo; settings: STX64 1 μg/ml in DMSO; nematodes overexpressing human α-synuclein in muscle cells, monitored every two days; vs DMSO
Method: C. elegans models of Parkinson's disease: We tested if sul-2 mutations or STX64 (Sigma cat. No. 51950) treatment at 1 μg/ml concentration dissolved in DMSO improved the symptoms caused by the overexpression of human α-synuclein in muscle cells (see the following references for information on the model used: van Ham et al., 2008. PLoS Genet. 4(3):e1000027; Gidalevitz et al., 2009. PLoS Genet. 5(3):e1000399; van Ham et al., 2010. Cell. 142(4):601-12). In particular, nematodes were synchronized at 20° C. and monitored every two days. On each day of monitoring, a nematode was placed in a drop of M9 buffer, allowing 30 seconds accommodation and later counting number of pitches in one minute, assuming that a pitch occurs when the head of the nematode crosses the axial axis. N=20 for each day assayed and condition (this protocol was adapted from Van Ham et al., 2010. Cell. 142: 601-612).

[4] = tested on: APP-PS1 mice; test: Step-through passive avoidance test in APP-PS1 mice (chronic AD mouse model); format: in vivo; settings: APP-PS1 mice older than 15 months, oral STX64 during 3-4 weeks; vs vehicle and wild type mice
Method: as §1, with “male Swiss (CD1) and APP-PS1 (Blanchard” for “R6/1 mice (Yi Li”, “2003. Exp Neural. 184(1):247-63) mice” for “2005. NeuroRX. 2(3): 447-464; Mangiarini et al., 1996. Cell. 87(3):493-506)”, “provider (University of Seville, Spain)” for “provider”, “Behavioral” for “Motor activity”, “8 week-old Swiss mice, and >15 month-old APP-PS1 mice in C57Black background. For histological studies, male APP-PS1 mice from 2 to >15 months of age were used.” for “2-month-old R6/1 mice.”
(§2) Mice Oral STX administration: STX64 was dissolved in drinking water at 0.005 mg/ml. Mice were exposed to STX solution during 3-4 weeks and the water intake was registered every day during the treatment. The estimated daily dose of STX64 was between 1-2 mg/Kg of body weight.
Step-through passive avoidance (PA) test: Mice have an innate preference for dark and enclosed environments. […]

[5] = tested on: wild type mice injected with β-amyloid oligomers in the hippocampus; test: Step-through passive avoidance test after intrahippocampal β-amyloid oligomers (acute AD mouse model); format: in vivo
Method: as §1, with “male Swiss (CD1) and APP-PS1 (Blanchard” for “R6/1 mice (Yi Li”, “2003. Exp Neural. 184(1):247-63) mice” for “2005. NeuroRX. 2(3): 447-464; Mangiarini et al., 1996. Cell. 87(3):493-506)”, “provider (University of Seville, Spain)” for “provider”, “Behavioral” for “Motor activity”, “8 week-old Swiss mice, and >15 month-old APP-PS1 mice in C57Black background. For histological studies, male APP-PS1 mice from 2 to >15 months of age were used.” for “2-month-old R6/1 mice.”
Mice local drug infusion: Mice were anesthetized with 4% chloral hydrate ([…] of body weight, i.p.) and when fully anesthetized, they were situated in a stereotactic frame. In order to injure the hippocampus, 0.5 μl of 5 μM solution of β-amyloid oligomers were injected bilaterally into the dorsal hippocampus of the mice at the following stereotactic coordinates: AP=−2.2 mm, ML=±1.5 mm, V=−1.5 mm from the Bregma. The mice were then allowed to recover for at least 15 days. […]

[6] = tested on: C. elegans Alzheimer's disease model strain CL2006; test: Paralysis in C. elegans Alzheimer's disease model expressing β-amyloid in muscle cells; format: in vivo; settings: nematodes expressing β-amyloid in muscle cells, monitored from 1st day of adulthood
Method: C. elegans model of Alzheimer's disease: We also tested an Alzheimer's disease model expressing β-amyloid protein in muscle cells which causes paralysis in the nematode as it ages. Nematodes were synchronized at 20° C. Paralysis was monitored from 1st day of adulthood, by observing whether there is a lack of movement after the nematode was stimulated with a platinum pick.

[7] = tested on: 35 polyglutamine (polyQ) repeats fused to YFP, strain AM140; test: Counting of polyQ aggregates in C. elegans Huntington's disease model; format: in vivo; settings: STX64 1 μg/ml in DMSO; counted at day 5 of adulthood
Method: (§3) To quantify the aggregates, animals were transferred to pads comprising 2% agarose and immobilized using 25 mM levamisole. The number of polyQ aggregates was determined by counting fluorescent aggregates at 10× magnification, from first bulb pharyngeal to second bulb.

[8] = tested on: β-amyloid; test: β-amyloid immunohistochemistry and histological analysis in APP-PS1 mice; format: in vivo
Method: as §1, with “male Swiss (CD1) and APP-PS1 (Blanchard” for “R6/1 mice (Yi Li”, “2003. Exp Neural. 184(1):247-63) mice” for “2005. NeuroRX. 2(3): 447-464; Mangiarini et al., 1996. Cell. 87(3):493-506)”, “provider (University of Seville, Spain)” for “provider”, “Behavioral” for “Motor activity”, “8 week-old Swiss mice, and >15 month-old APP-PS1 mice in C57Black background. For histological studies, male APP-PS1 mice from 2 to >15 months of age were used.” for “2-month-old R6/1 mice.”
as §2
Immunohistochemistry and histological analysis: For immunohistochemistry, an antibody against β-amyloid (1:3000, Sigma-Aldrich) was used. Antibody staining was visualized with H2O2 and diaminobenzidine, and enhanced with nickel. To minimize variability, at least 5 sections per mice were analyzed under a bright-field DMRB RFY HC microscope (Leica). In each section, the percentage area occupied by β-amyloid, the density and the average size of β-amyloid accumulations were quantified using Image-J software (downloaded as a free software package from the public domain: http://rsb.info.nih.gov/ij/download.html).

[9] = tested on: wild type worms and sul-2 deletion mutants; settings: cited from earlier work
[10] = tested on: α-synuclein aggregates; test: Counting of fluorescent α-synuclein aggregates in C. elegans Parkinson's disease model; format: in vivo; settings: NL5901 nematodes expressing α-synuclein fused to YFP; STX64 vs DMSO
Method: as §3, with “Further, we tested the effect of the sul-2 deletion and the administration of STX64 on the aggregation of α-synuclein. To” for “To”, “α-synuclein” for “polyQ”, “40×” for “10×”

| SMILES | number of paralyzed worms [1] | motor activity (distance traveled in open-field, 15 minutes) [2] | mobility (number of pitches in one minute) [3] | cognitive deficiencies (passive avoidance test) [4] | cognitive deficiencies (escape latency, passive avoidance test) ([5]; local (intrahippocampal) STX64, 0.5 μl of 1 mg/ml, 20 minutes before β-amyloid oligomers) | cognitive deficiencies (escape latency, passive avoidance test) ([5]; systemic (oral) STX64, 0.005 mg/ml in drinking water) | paralysis with age [6] | effect on paralysis, comparison of sul-2 absence, STX64 and EMATE ([1]; GMC101 strain) | total number of polyQ aggregates [7] | β-amyloid immunoreactive area ([8]; >15-month-old APP-PS1 mice, 3-4 weeks oral STX64 (0.005 mg/ml in drink water), frontal cortex and hippocampus, vs vehicle) | β-amyloid plaque density ([8]; >15-month-old APP-PS1 mice, 3-4 weeks oral STX64, frontal cortex and hippocampus, vs vehicle) | average β-amyloid plaque size ([8]; >15-month-old APP-PS1 mice, 3-4 weeks oral STX64, frontal cortex, vs vehicle) | average β-amyloid plaque size ([8]; >15-month-old APP-PS1 mice, 3-4 weeks oral STX64, hippocampus, vs vehicle) | β-amyloid deposition compared with the time-course in untreated APP-PS1 mice ([8]; >15 month-old APP-PS1 mice, 3-4 weeks oral STX64, frontal cortex and hippocampus) | longevity ([9]; sul-2 deletion mutants) | longevity ([9]; wild type worms) | number of bigger α-synuclein aggregates (≥3 μm) [10] | number of smaller α-synuclein aggregates (<1 μm) [10] |
| --- | --- | --- | --- | --- | --- | --- | --- | --- | --- | --- | --- | --- | --- | --- | --- | --- | --- | --- |
| C[C@]12CC[C@@H]3c4ccc(OS(N)(=O)=O)cc4CC[C@H]3[C@@H]1CCC2=O [EMATE, estrone sulfamate] | reduced the number of paralyzed worms | – | – | – | – | – | – | – | – | – | – | – | – | – | – | – | – | – |
| NS(=O)(=O)Oc1ccc2c3c(c(=O)oc2c1)CCCCC3 [STX64] | reduced the number of paralyzed worms | decrease in motor activity can be avoided | significantly improved mobility | completely reverted cognitive deficiencies | reverted cognitive deficiencies | reverted cognitive deficiencies | delayed paralysis | appeared to have the greatest effect | reduced the total number of aggregates | significant reduction | significant reduction | significant reduction | a significant reduction, except for plaque size in hippocampus | reduced β-amyloid deposition in APP-PS1 mice older than 15 months to that observed in APP-PS1 mice of 10-12 months of age | did not further increase the longevity | the same longevity effects as in the sul-2 mutants | increasing the number of bigger aggregates | decreased the number of smaller aggregates |

Reference: US20210251953A1, “COMPOSITIONS FOR TREATING AND/OR […]-A[…]” (U[…] DE OLAVIDE, priority 2018, published 2021)
